Here are results for 1 compound from patent publication US4080467A, “Pharmaceutical compositions comprising 1,3-dithiolan-2-ylidene malonate derivatives” (Nihon Nohyaku Co., Ltd., priority 1976, dated 1978).

The subject of assay [1] is Acute Liver Damage associated with Centrilobular Necrosis (carbon tetrachloride). Kind of assay: Protective effect on acute liver damage associated with centrilobular necrosis (carbon tetrachloride model). The format is in vivo, mice (four-week-old male, dd strain). To be noted: 250 mg/kg oral 6 h before CCl4, average of 5 to 6 mice.
Assay [2] relates to Chronic Liver Damage (thioacetamide). Kind of assay: Therapeutic effect on chronic liver damage (thioacetamide model), BSP test. To be noted: 12 times TAA 100 mg/kg, then diet + 0.2% compound. Type of assay: in vivo, rats (Sprague Dawley strain). As for the experimental part: In the tests of this Example, TAA was repeatedly administered to animals to prepare test animals suffering from somewhat chronic liver damages, and then the present compounds were administered thereto to know whether or not the compounds were effective against chronic hepatitis.
The degree of the liver damage and the therapeutic effects of the compounds were evaluated according to BSP test. The BSP test is a method in which BSP (sulfobromophthalein sodium), a dye known to be quickly metabolized in and excreted from the liver, is intravenously injected into animals and, after a definite period of time, the blood is taken out to measure the amount of BSP remaining in the plasma. In case the animals are suffering from the liver damage, the dye will remain, according to the degree of the damage, at the stage where a major portion of BSP is metabolized and excreted in the case of normal animals.
Five groups of rats (Sprague Dawley strain) were treated as follows:
Group A: The rats were orally administered with 100 mg/kg of thioacetamide,at 3 days intervals for 36 days (12 times of the administration), then were submitted for 10 days to a normal diet.
Group B: The rats were orally administered with 100 mg/kg of thioacetamide at 3 days intervals for 36 days (12 times of the administration), then were submitted for 10 days to the normal diet + 0.2% of compound 4.
Group C: The rats were orally administered with 100 mg/kg of thioacetamide at 3 days intervals for 36 days (12 times of the administration) then were submitted for 10 days to the normal diet + 0.2% of compound 2.
Group D: The rats were orally administered with 100 mg/kg of thioacetamide at 3 days intervals for 36 days (12 times of the administration) then were submitted for 10 days to the normal diet + 0.2% of anethol trithion.
Group E: The rats were submitted to the normal diet as the control.
Five rats were sacrified from each group at appropriate intervals for BSP (sulfobromophthalein) test, the results of which were shown as amounts (mg) of BSP remaining in 1 dl of plasma.

Assay [3] relates to acute liver damage associated with periportal necrosis (allyl alcohol). Kind of assay: Protective effect on acute liver damage associated with periportal necrosis (allyl alcohol model), BSP test. Type of assay: in vivo, male mouse (4 week-old dd-strain). To be noted: 100 mg/kg oral 6 h before allyl alcohol 0.075 ml/kg; 24 h after. As for the experimental part: The compound of this invention or anethol trithion was orally administered to the male mouse (4 week-old dd-strain) at the dose of 100 mg/kg. Six hours after it, allyl alcohol was orally administered at the dose of 0.075 ml/kg. Twenty four hours after it, the animals were sacrificed to collect blood samples. The residual quantity of BSP was measured by BSP test, from which the protective effect of the compound of this invention was evaluated.

Assay [4] relates to acute liver damage associated with discrete lobular necrosis (D-galactosamine). Kind of assay: Protective effect on acute hepatitis with mesenchymal reaction and discrete lobular necrosis (D-galactosamine model). The format is in vivo, male rat (SD strain). To be noted: 100 mg/kg oral 6 h before D-galactosamine. As to the method: D-Galactosamine is a compound which induces a discrete lobular necrosis associated with mesenchymal reaction similar to the change observed in human viral hepatitis, so that it is frequently used in producing a model for viral hepatitis.
The compound of this invention or anethol trithion was administered orally to the male rat (SD strain) at the dose of 100 mg/kg. Six hours after it, D-galacetosamine was intraperitoneally administered at the dose of 600 mg/kg. Four hours after it, an additional 300 mg/kg was administered intraperitoneally. Eight hours after it, the animals were sacrificed to collect the blood samples. P-GPT activity and triglyceride in the liver were measured to evaluate the effect of the compound of this invention.

Assay [5] relates to bile flow and biliary salt. Kind of assay: Cholagogic action: bile flow and excretion of biliary salt. To be noted: 200 mg/kg oral; for bile flow / excretion of biliary salt: before treatment = 100. The format is in vivo, male rat (4 week-aged, SD-JCL strain). As for the experimental part: The male rat (4 week-aged, SD-JCL strain) was anesthetized with sodium pentobarbital (37.5 mg/kg, intraperitoneal injection). The abdominal cavity was opened through a midline incision. The common bile duct was catheterized with polyethylene tube o.d. 0.8 mm. The catheter was brought to the outside through the abdominal incision wound prior to closing. Bile was collected from the catheter continuously with time intervals of one hour. The quantity of bile produced in one hour was determined by weighing and that of biliary salt was determined by enzymatic method (Ikagaku Jikkenho Koza 1B, Biological Constituents II, edited by Tamio YAMAKAWA). The amount of biliary salts was represented as cholic acid equivalent.
In the representation of the results, the quantities of bile and biliary salts produced in one hour prior to the administration of drug were taken as 100. The compound of this invention was orally administered at the dose of 200 mg/kg. As reference anethol trithion was used.

As to `COc1ccc(-c2cc(=S)ss2)cc1` [Anethol trithion, anethol trithion, reference compound], in assay [1] (24 h after CCl4, values over 1,000 regarded as 1,000), the “p-GPT (plasma glutamic-pyruvic transaminase activity)” value is 38 Karmen units. Moreover, the “Liver Damage Index” value in assay [1] (0 normal, 2 slightly recognized, 4 clearly observable damage, 6 heavy damage) is 1.6. The “Concentration of BSP in plasma” value in assay [2] (2 Days) is 9.7 ± 4.1 mg/dL; in assay [2] (5 Days), 7.3 ± 3.4 mg/dL; in assay [2] (10 Days) it was 0.9 ± 0.1 mg/dL. Further, the “Index of hepatotoxicity: BSP (residual quantity of BSP)” value in assay [3] was found to be 19.3±4.6. This compound also gave a Triglyceride in liver in assay [4] of 9.2 ± 1.5 mg/g. In assay [4], this compound registered a p-GPT of 106±30 Karmen unit. The bile flow in assay [5] (1 hour after treatment) was found to be 114±15; in assay [5] (2 hours after treatment) it was 114±15; in assay [5] (3 hours after treatment), 102±11; in assay [5] (4 hours after treatment) it was 95±7.7; in assay [5] (5 hours after treatment), 86±6.6. For the same compound, the “excretion of biliary salt” value is listed as 108±12 in assay [5] (1 hour after treatment); 89±11 in assay [5] (2 hours after treatment); 66±3.8 in assay [5] (3 hours after treatment); 47±3.0 in assay [5] (4 hours after treatment); 3.3±4.0 in assay [5] (5 hours after treatment). Further, the “Quantity of total excreted bile for 5 hours relative to control” value in assay [5] (versus control) is recorded as 1.10 times.
